Reference: article PMC3244877 (2009)

Target: T1, HsEg5 (Homo sapiens, UniProt P52732)
T1 sequence (P52732 1-370): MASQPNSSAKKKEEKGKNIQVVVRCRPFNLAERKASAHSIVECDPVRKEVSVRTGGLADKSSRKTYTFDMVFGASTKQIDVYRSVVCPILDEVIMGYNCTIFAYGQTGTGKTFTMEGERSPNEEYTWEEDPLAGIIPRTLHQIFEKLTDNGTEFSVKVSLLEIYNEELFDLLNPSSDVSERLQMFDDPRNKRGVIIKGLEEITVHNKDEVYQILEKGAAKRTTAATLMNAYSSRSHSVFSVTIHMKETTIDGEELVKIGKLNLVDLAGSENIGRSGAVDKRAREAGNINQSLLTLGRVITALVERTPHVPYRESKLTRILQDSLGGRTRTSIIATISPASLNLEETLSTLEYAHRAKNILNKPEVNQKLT
Assay: NADH-coupled basal ATPase assay, Lineweaver-Burk
Assay type: biochemical

Ki: 0.55 µM
SMILES: [Mo] [NSC 622124]
